Measurements published in patent US12391737B2, “Soluble NPY2 receptor agonists” (Boehringer Ingelheim International GmbH, priority 2020, dated 2025).

Experiments:
[1] = target: T1, human NPY5 receptor (hY5R) (Homo sapiens, UniProt Q15761); assay: HTRF cAMP Gi assay, hY5R
T1 sequence (Q15761 1-445): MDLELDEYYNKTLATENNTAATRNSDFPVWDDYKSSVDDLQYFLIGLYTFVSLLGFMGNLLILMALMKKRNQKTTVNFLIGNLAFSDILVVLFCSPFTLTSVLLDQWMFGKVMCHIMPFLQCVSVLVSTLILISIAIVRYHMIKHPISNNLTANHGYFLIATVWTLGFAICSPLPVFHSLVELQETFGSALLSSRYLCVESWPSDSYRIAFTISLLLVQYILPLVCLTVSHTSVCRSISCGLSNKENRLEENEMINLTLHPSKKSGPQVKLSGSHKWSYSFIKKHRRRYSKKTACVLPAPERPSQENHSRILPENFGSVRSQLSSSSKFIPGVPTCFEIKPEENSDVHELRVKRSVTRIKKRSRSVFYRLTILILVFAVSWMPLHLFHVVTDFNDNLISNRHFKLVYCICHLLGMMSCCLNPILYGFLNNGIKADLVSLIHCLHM

[2] = target: T2, Human Neuropeptide Y2 Receptor (Homo sapiens, UniProt P49146); assay: Radioligand binding competition assay (RLB); conditions: Table 3, 125I-PYY(1-36) competition; read-out: Ki
T2 construct: purchased CHEMICON HTS066M
T2 sequence (P49146 1-381): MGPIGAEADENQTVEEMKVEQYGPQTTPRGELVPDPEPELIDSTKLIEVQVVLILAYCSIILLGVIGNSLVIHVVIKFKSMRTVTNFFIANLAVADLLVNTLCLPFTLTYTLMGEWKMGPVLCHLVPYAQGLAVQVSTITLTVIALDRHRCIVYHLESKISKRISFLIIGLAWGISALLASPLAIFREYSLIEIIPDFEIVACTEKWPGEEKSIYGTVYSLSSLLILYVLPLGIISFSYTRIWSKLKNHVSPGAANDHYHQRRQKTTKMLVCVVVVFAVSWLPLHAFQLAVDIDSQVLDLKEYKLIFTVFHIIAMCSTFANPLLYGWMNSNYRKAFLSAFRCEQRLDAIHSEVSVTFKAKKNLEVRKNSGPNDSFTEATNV
Outline: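 Displacement of radioligand is measured after 2 h at room temperature with receptor membranes in Mg2+/Ca2+ HEPES buffer, pH 7.4. Filter-bound radioactivity is counted and IC50 obtained from curve fitting.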

Solubility determination = conditions: for Sol6: pH 6; for Sol7: pH 7
Outline: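 Shake-flask style: 10 mg/ml peptide (TFA salt), 0.1 M sodium diphosphate pH 6.4/7.0, 600 rpm, 2 h, RT; filter; dilute 1 mg/ml in 50% MeCN; RP-UPLC, 0–100% B over 2 min, 50 °C. Solubility = sample/control area ratio. Final pH recorded.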

With `CC(C)CC(=O)N[C@@H](C)C(=O)N1CCC[C@H]1C(=O)N[C@@H](CCC(=O)O)C(=O)N[C@@H](CCCCNC(=O)CCCCCNC(=O)CC[C@H](NC(=O)CCCCCCCCCCCCCCCCC(=O)O)C(=O)O)C(=O)N1CCC[C@H]1C(=O)N[C@@H](CCC(=O)O)C(=O)N[C@@H](CCC(=O)O)C(=O)N[C@@H](CC(=O)O)C(=O)N[C@@H](C)C(=O)N[C@H](C(=O)N1CCC[C@H]1C(=O)N[C@@H](CCC(=O)O)C(=O)N[C@@H](CCC(=O)O)C(=O)N[C@@H](CC(C)C)C(=O)N[C@@H](CCC(N)=O)C(=O)N[C@@H](CCCCN)C(=O)N[C@@H](Cc1ccc(O)cc1)C(=O)N[C@@H](Cc1ccc(O)cc1)C(=O)N[C@H](C(=O)N[C@@H](CO)C(=O)N[C@@H](CC(C)C)C(=O)N[C@@H](CCCNC(=N)N)C(=O)N[C@@H](Cc1c[nH]cn1)C(=O)N[C@@H](Cc1ccc(O)cc1)C(=O)N[C@@H](Cc1ccc(O)cc1)C(=O)N[C@@H](CC(N)=O)C(=O)N[C@@H](Cc1c[nH]c2ccccc12)C(=O)N[C@@H](CC(C)C)C(=O)N[C@H](C(=O)N[C@@H](CCCNC(=N)N)C(=O)N[C@@H](CCC(N)=O)C(=O)N[C@@H](CCCNC(=N)N)C(=O)N[C@@H](Cc1ccc(O)cc1)C(N)=O)[C@@H](C)O)C(C)C)[C@@H](C)O` [Compound 16, N{alpha-4}-(3-methylbutanoyl)-N{epsilon-7}-(6-[(4S)-4-carboxy-4-(17-carboxyheptadecanamido)butanamido]hexanoyl)[4A,7K,9E,13T,18Q,19K,22V,28Y,30W,31L]-hPYY(4-36)] the EC50 [1] was > 5000 nM, the Ki [2] was 2.81 nM and the “Sol6” value (Solubility determination) was 10.0 mg/mL. The “Sol7” value (Solubility determination) was 8.3 mg/mL.
For `CC(C)CC(=O)N[C@@H](C)C(=O)N1CCC[C@H]1C(=O)N[C@@H](CCC(=O)O)C(=O)N[C@@H](CCCCNC(=O)CCCCCNC(=O)CC[C@H](NC(=O)CCCCCCCCCCCCCCCCC(=O)O)C(=O)O)C(=O)N1CCC[C@H]1C(=O)N[C@@H](CCC(=O)O)C(=O)N[C@@H](CCC(=O)O)C(=O)N[C@@H](CCC(=O)O)C(=O)N[C@@H](C)C(=O)N[C@@H](CO)C(=O)N1CCC[C@H]1C(=O)N[C@@H](CCC(=O)O)C(=O)N[C@@H](CCC(=O)O)C(=O)N[C@@H](CC(C)C)C(=O)N[C@@H](CCC(N)=O)C(=O)N[C@@H](CCCNC(=N)N)C(=O)N[C@@H](Cc1ccc(O)cc1)C(=O)N[C@@H](Cc1ccc(O)cc1)C(=O)N[C@H](C(=O)N[C@@H](CO)C(=O)N[C@@H](CC(C)C)C(=O)N[C@@H](CCCNC(=N)N)C(=O)N[C@@H](Cc1c[nH]cn1)C(=O)N[C@@H](Cc1ccc(O)cc1)C(=O)N[C@@H](Cc1ccc(O)cc1)C(=O)N[C@@H](CC(N)=O)C(=O)N[C@@H](Cc1c[nH]c2ccccc12)C(=O)N[C@@H](CC(C)C)C(=O)N[C@H](C(=O)N[C@@H](CCCNC(=N)N)C(=O)N[C@@H](CCC(N)=O)C(=O)N[C@@H](CCCNC(=N)N)C(=O)N[C@@H](Cc1ccc(O)cc1)C(N)=O)[C@@H](C)O)C(C)C` [Compound 23, N{alpha-4}-(3-methylbutanoyl)-N{epsilon-7}-(6-[(4S)-4-carboxy-4-(17-carboxyheptadecanamido)butanamido]hexanoyl)[4A,7K,9E,11E,18Q,22V,28Y,30W,31L]-hPYY(4-36)], the EC50 [1] was > 5000 nM, the Ki [2] was 12.6 nM and the “Sol6” value (Solubility determination) was 9.8 mg/mL. For the same compound, the “Sol7” value (Solubility determination) was 10.0 mg/mL.
With `CC[C@H](C)[C@H](NC(=O)[C@H](CCC(=O)O)NC(=O)[C@H](CCC(=O)O)NC(=O)[C@@H]1CCCN1C(=O)[C@H](CO)NC(=O)[C@H](C)NC(=O)[C@H](CC(=O)O)NC(=O)[C@H](CCC(=O)O)NC(=O)[C@H](CCC(=O)O)NC(=O)[C@@H]1CCCN1C(=O)[C@H](CCCCNC(=O)CCCCCNC(=O)CC[C@H](NC(=O)CCCCCCCCCCCCCCCCC(=O)O)C(=O)O)NC(=O)[C@H](CCC(=O)O)NC(=O)[C@@H]1CCCN1C(=O)[C@H](C)NC(=O)CC(C)C)C(=O)N[C@@H](CCC(N)=O)C(=O)N[C@@H](CCCNC(=N)N)C(=O)N[C@@H](Cc1ccc(O)cc1)C(=O)N[C@@H](Cc1ccc(O)cc1)C(=O)N[C@H](C(=O)N[C@@H](CCC(=O)O)C(=O)N[C@@H](CC(C)C)C(=O)N[C@@H](CCCNC(=N)N)C(=O)N[C@@H](Cc1c[nH]cn1)C(=O)N[C@@H](Cc1ccc(O)cc1)C(=O)N[C@@H](Cc1ccc(O)cc1)C(=O)N[C@@H](CC(N)=O)C(=O)N[C@@H](Cc1c[nH]c2ccccc12)C(=O)N[C@@H](CC(C)C)C(=O)N[C@H](C(=O)N[C@@H](CCCNC(=N)N)C(=O)N[C@@H](CCC(N)=O)C(=O)N[C@@H](CCCNC(=N)N)C(=O)N[C@@H](Cc1ccc(O)cc1)C(N)=O)[C@@H](C)O)C(C)C` [Compound 52, N{alpha-4}-(3-methylbutanoyl)-N{epsilon-7}-(6-[(4S)-4-carboxy-4-(17-carboxyheptadecanamido)butanamido]hexanoyl)-[4A,7K,9E,17I,18Q,22V,23E,28Y,30W,31L]-hPYY(4-36)] the EC50 [1] was > 5000 nM, the Ki [2] was 2.39 nM and the “Sol6” value (Solubility determination) was 9.5 mg/mL. The “Sol7” value (Solubility determination) was 9.5 mg/mL.
For `CC[C@H](C)[C@H](NC(=O)[C@H](Cc1ccc(O)cc1)NC(=O)[C@H](Cc1ccc(O)cc1)NC(=O)[C@H](CCCNC(=N)N)NC(=O)[C@H](CCC(N)=O)NC(=O)[C@H](CC(C)C)NC(=O)[C@H](CCC(=O)O)NC(=O)[C@H](CCC(=O)O)NC(=O)[C@@H]1CCCN1C(=O)[C@H](CO)NC(=O)[C@H](C)NC(=O)[C@H](CC(=O)O)NC(=O)[C@H](CCC(=O)O)NC(=O)[C@H](CCC(=O)O)NC(=O)[C@@H]1CCCN1C(=O)[C@H](CCCCNC(=O)CCCCCNC(=O)CC[C@H](NC(=O)CCCCCCCCCCCCCCCCC(=O)O)C(=O)O)NC(=O)[C@H](CCC(=O)O)NC(=O)[C@@H]1CCCN1C(=O)[C@H](C)NC(=O)CC(C)C)C(=O)N[C@@H](CO)C(=O)N[C@@H](CC(C)C)C(=O)N[C@@H](CCCNC(=N)N)C(=O)N[C@@H](Cc1c[nH]cn1)C(=O)N[C@@H](Cc1ccc(O)cc1)C(=O)N[C@@H](Cc1ccc(O)cc1)C(=O)N[C@@H](CC(N)=O)C(=O)N[C@@H](Cc1c[nH]c2ccccc12)C(=O)N[C@@H](CC(C)C)C(=O)N[C@H](C(=O)N[C@@H](CCCNC(=N)N)C(=O)N[C@@H](CCC(N)=O)C(=O)N[C@@H](CCCNC(=N)N)C(=O)N[C@@H](Cc1ccc(O)cc1)C(N)=O)[C@@H](C)O` [Compound 76, N{alpha-4}-(3-methylbutanoyl)-N{epsilon-7}-(6-[(4S)-4-carboxy-4-(17-carboxyheptadecanamido)butanamido]hexanoyl)-[4A,7K,9E,18Q,22I,28Y,30W,31L]-hPYY(4-36)], the EC50 [1] was > 5000 nM, the Ki [2] was 2.68 nM and the “Sol6” value (Solubility determination) was 10.0 mg/mL. For the same compound, the “Sol7” value (Solubility determination) was 10.0 mg/mL.
